Earlier results in patent US7645795B2, “Method for treating amyotrophic lateral sclerosis” (BodyBio, Inc, priority 2004, dated 2010).

Test system: ALS patients

In the case of `Nc1nc2ccc(OC(F)(F)F)cc2s1` [riluzole], the “Extension of lifespan of ALS patients” value is given as “approximately 3 months” and the Hepatic effect is given as “evokes hepatic stress upon elevation of liver enzymes”.
